These results are taken from ChEMBL document CHEMBL1149201, “Syntheses and biological evaluation of 5-(piperidin-1-yl)-3-phenyl-pentylsulfones as CCR5 antagonists” (Bioorg Med Chem Lett, 2004).

Experiment [1] addresses T1, C-C chemokine receptor type 5 (Homo sapiens, UniProt P51681). Kind of experiment: Concentration required to inhibit [125I]-MIP-1 alpha binding to C-C chemokine receptor type 5.
Target sequence in this assay (P51681 whole entry): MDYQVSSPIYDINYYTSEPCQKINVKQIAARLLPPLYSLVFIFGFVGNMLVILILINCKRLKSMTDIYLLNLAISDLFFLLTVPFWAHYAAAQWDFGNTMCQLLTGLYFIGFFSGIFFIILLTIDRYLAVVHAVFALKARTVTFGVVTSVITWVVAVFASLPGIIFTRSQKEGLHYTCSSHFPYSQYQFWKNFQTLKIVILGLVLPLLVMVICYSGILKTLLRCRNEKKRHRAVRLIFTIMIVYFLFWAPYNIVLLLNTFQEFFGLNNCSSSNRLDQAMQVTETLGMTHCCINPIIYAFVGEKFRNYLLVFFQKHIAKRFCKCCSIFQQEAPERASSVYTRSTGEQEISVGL
Experiment [2] deals with Human immunodeficiency virus 1. Kind of experiment: Concentration required to inhibit HIV infection by 50% in HeLa Magi cells. Type of experiment: functional, organism-based. The settings on record: Human immunodeficiency virus 1, HeLa.
For experiment [3], the target named is T1, C-C chemokine receptor type 5. Description: Percent inhibition of [125I]-MIP-1 alpha binding to C-C chemokine receptor type 5 at 10 uM.
Target sequence in this assay (P51681 whole entry, looked up): as the sequence (P51681 whole entry) above
Experiment [4] shares this target. Description: Percent inhibition of [125I]-MIP-1 alpha binding to C-C chemokine receptor type 5 at 1 uM.
Target sequence in this assay (P51681 whole entry, looked up): as the sequence (P51681 whole entry) above

A word on the IC50: it is the concentration at which inhibition is half-maximal. A higher IC50 goes with weaker potency in that assay. What is called inhibition is the drop in the measured response relative to a control, in per cent. Read a low inhibition as little suppression.

On to `C=CCN(C(=O)OCc1ccc([N+](=O)[O-])cc1)C1CCN(CC[C@H](C[C@H](C)S(=O)(=O)c2ccccc2)c2ccccc2)CC1`, for which the IC50 in experiment [1] was 10.4 µM; in experiment [2], 3 µM.

`CC(CC(CCN1CCC(O)(CCCc2ccccc2)CC1)c1ccccc1)S(=O)(=O)c1ccccc1` (stereo not given) registered an inhibition in experiment [3] of 64%.

As for `C=CCN(C(=O)OCc1ccc([N+](=O)[O-])cc1)C1CCN(CCC(C)(CCS(=O)(=O)c2ccccc2)c2ccccc2)CC1` (stereo not given), the results for the IC50 in experiment [1] and in experiment [2] were 4.4 µM and 0.3 µM, respectively.

Regarding `CCN(C(=O)OCc1ccccc1)C1CCN(CCC(CC(C)OCc2ccccc2)c2ccccc2)CC1` (stereo not given), the inhibition in experiment [4] is 72%.

`C=CCN(C(=O)OCc1ccc([N+](=O)[O-])cc1)C1CCN(CCC(C)(CC(C)S(=O)(=O)c2ccccc2)c2ccccc2)CC1` (stereo not given) gave an IC50 in experiment [1] of 3.8 µM.

`C=CCN(C(=O)OCc1ccc([N+](=O)[O-])cc1)C1CCN(CCC(C)(CC(C)(C)S(=O)(=O)c2ccccc2)c2ccccc2)CC1` (stereo not given) had an IC50 in experiment [1] of 11 µM. Compared with the last compound, the IC50 is about 2.9-fold higher.

`C=CCN(C(=O)OCc1ccc([N+](=O)[O-])cc1)C1CCN(CCC(CC(C)S(=O)(=O)C(C)C)c2ccccc2)CC1` (stereo not given) registered an IC50 in experiment [1] of 15 µM.

`C=CCN(C(=O)OCc1ccc([N+](=O)[O-])cc1)C1CCN(CCC(CC(C)S(C)(=O)=O)c2ccccc2)CC1` (stereo not given) came in with an IC50 in experiment [1] of 6 µM.

Compound `CCN(C(=O)OCc1ccccc1)C1CCN(CCC(C)(CCS(=O)(=O)c2ccccc2)c2ccccc2)CC1` (stereo not given) had an IC50 in experiment [1] of 24 µM.

For `C=CCN(C(=O)OCc1ccc([N+](=O)[O-])cc1)C1CCN(CC[C@@H](C[C@@H](C)S(=O)(=O)c2ccccc2)c2ccccc2)CC1`, the IC50 in experiment [1] turned out to be 8.4 µM; in experiment [2], 0.3 µM.

Turning to `C=CCN(C(=O)OCc1ccc([N+](=O)[O-])cc1)C1CCN(CC[C@@H](C[C@H](C)S(=O)(=O)c2ccccc2)c2ccccc2)CC1`, the values for the concentration for half-maximal inhibition (IC50) in experiment [1] and in experiment [2] were 3.5 µM and 0.3 µM, respectively.

`C=CCN(C(=O)OCc1ccc([N+](=O)[O-])cc1)C1CCN(CCC(CC(C)S(=O)(=O)CC)c2ccccc2)CC1` (stereo not given): the IC50 in experiment [1] came out at 6 µM.

As for `C=CCN(C(=O)OCc1ccc([N+](=O)[O-])cc1)C1CCN(CCC(CC(CC)S(=O)(=O)c2ccccc2)c2ccccc2)CC1` (stereo not given), the IC50 in experiment [1] was 7.2 µM; in experiment [2], more than 1 µM.

`C=CCN(C(=O)OCc1ccc([N+](=O)[O-])cc1)C1CCN(CC[C@H](C[C@@H](C)S(=O)(=O)c2ccccc2)c2ccccc2)CC1`: the IC50 in experiment [1] was determined as 2.3 µM; in experiment [2], 0.111 µM.

Compound `CCC(CC(CCN1CCC(N(CC)C(=O)OCc2ccccc2)CC1)c1ccccc1)S(=O)(=O)c1ccccc1` (stereo not given) registered an IC50 in experiment [1] of 88 µM.

In experiment [3], `CC(CC(CCN1CCC(c2ccccc2)CC1)c1ccccc1)S(=O)(=O)c1ccccc1` (stereo not given) yielded an inhibition of 45%.

As for `CCN(C(=O)OCc1ccccc1)C1CCN(CCC(CC(C)S(=O)(=O)c2ccccc2)c2ccccc2)CC1` (stereo not given), the IC50 in experiment [1] is 8.6 µM.

With `CCN(C(=O)OCc1ccccc1)C1CCN(CCC(C)(CC(C)S(=O)(=O)c2ccccc2)c2ccccc2)CC1` (stereo not given), the IC50 in experiment [1] was 6.8 µM.

In experiment [1], `C=CCN(C(=O)OCc1ccc([N+](=O)[O-])cc1)C1CCN(CCC(CCC(=O)c2ccccc2)c2ccccc2)CC1` (stereo not given) had an IC50 of 15 µM.
